Reference: ChEMBL document CHEMBL3621144, “Small-Molecule Allosteric Modulators of the Protein Kinase PDK1 from Structure-Based Docking” (J Med Chem, 2015)
The source made the active and inactive calls. No cut-off for these calls is given here.

What was measured:
[1] = target: T1, 3-phosphoinositide-dependent protein kinase 1 (Homo sapiens, UniProt O15530); test: Displacement of PIFtide from human PDK1 PIF pocket after 1 hr by fluorescence polarization assay
T1 sequence (O15530 whole entry): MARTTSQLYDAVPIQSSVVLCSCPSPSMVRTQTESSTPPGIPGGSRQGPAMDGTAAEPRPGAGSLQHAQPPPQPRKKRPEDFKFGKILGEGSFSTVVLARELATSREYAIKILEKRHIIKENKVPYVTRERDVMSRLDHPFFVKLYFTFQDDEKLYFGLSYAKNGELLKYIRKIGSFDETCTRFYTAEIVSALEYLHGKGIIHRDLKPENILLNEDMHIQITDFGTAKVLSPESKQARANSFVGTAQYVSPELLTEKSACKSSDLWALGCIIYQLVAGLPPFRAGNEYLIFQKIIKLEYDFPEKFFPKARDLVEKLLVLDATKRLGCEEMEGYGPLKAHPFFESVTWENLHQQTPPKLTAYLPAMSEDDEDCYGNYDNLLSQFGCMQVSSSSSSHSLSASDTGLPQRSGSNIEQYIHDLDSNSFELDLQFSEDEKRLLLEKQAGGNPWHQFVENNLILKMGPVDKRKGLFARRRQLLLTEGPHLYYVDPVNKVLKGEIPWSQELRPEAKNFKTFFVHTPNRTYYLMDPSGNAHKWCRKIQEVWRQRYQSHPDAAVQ

[2] = Induction of colloidal aggregates formation in Tris/NaCl/Pluronic F-68 buffer at 300 uM by dynamic light scattering method; format: physicochemical
[3] = target: Cruzipain (Trypanosoma cruzi) (UniProt P25779); test: Inhibition of Trypanosoma cruzi Cruzain using Z-FR-AMC as substrate preincubated for 5 mins followed by substrate addition measured for 5 mins by spectrofluorimetric analysis
[4] = Induction of colloidal aggregates formation in Tris/NaCl/MgCl2/CHAPS/beta-mercaptoethanol buffer at 200 uM by dynamic light scattering method; format: physicochemical
[5] = target: T1, 3-phosphoinositide-dependent protein kinase 1; test: Activation of human PDK1 catalytic activity using T308tide as substrate after 1 hr by phosphor imager analysis in presence of [gamma-32P]-ATP relative to control
[6] = Induction of colloidal aggregates formation in Tris/NaCl/Pluronic F-68 buffer at 100 uM by dynamic light scattering method; format: physicochemical

Cruzipain (Trypanosoma cruzi), sequence (P25779 123-467 limits assumed): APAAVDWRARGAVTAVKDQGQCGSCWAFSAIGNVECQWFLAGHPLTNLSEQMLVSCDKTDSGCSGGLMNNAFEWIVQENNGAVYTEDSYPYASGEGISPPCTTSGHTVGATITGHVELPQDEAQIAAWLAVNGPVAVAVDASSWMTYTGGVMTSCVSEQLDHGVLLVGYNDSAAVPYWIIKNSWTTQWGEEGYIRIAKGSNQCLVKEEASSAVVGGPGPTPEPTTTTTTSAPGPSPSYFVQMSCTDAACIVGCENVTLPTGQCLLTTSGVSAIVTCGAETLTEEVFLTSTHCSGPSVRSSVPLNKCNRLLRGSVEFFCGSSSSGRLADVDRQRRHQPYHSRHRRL

| Structure (SMILES) | Kd [1] | further results |
| --- | --- | --- |
| COc1ccccc1OCCSc1nc2ccccc2n1CC(=O)O | > 200 µM | – |
| O=P(O)(O)[C@H](NC[C@@H]1CCCc2ccccc21)c1ccc(F)cc1 | 39.4 µM | Activity [2]: Not Active; inhibition [3]: inactive; Activity [4]: Not Active; EC50 [5]: 50 µM |
| O=C(O)Cn1c(SCc2ccccc2)nc2ccccc21 | > 200 µM | – |
| O=P(O)(O)[C@H](NCCc1ccc(F)cc1)c1ccc(F)cc1 | > 200 µM | – |
| Cc1ccc(OCCSc2nc3ccccc3n2CC(=O)O)c(C)c1 | 39.1 µM | Activity [2]: Not Active; inhibition [3]: inactive; Activity [4]: Not Active; EC50 [5]: 40 µM; Activity [6]: Not Active |
| O=C(O)Cn1c(SCCOc2ccccc2F)nc2ccccc21 | > 200 µM | – |
| O=C(O)C/C(=C/c1cccc(C(F)(F)F)c1)c1nc2ccccc2o1 | > 200 µM | – |
| Cc1cccc(OCCn2c(SCC(=O)O)nc3ccccc32)c1 | 75 µM | – |
| C[C@H](CN[C@H](c1ccc(F)cc1)P(=O)(O)O)c1ccccc1 | > 200 µM | – |
| C[C@@H](CN[C@H](c1ccccc1)P(=O)(O)O)c1ccccc1 | 150 µM | – |

More lines, main results first:

| Kd [1] | Structure (SMILES) | further results |
| --- | --- | --- |
| 74 µM | Cc1ccccc1OCCSc1nc2ccccc2n1CCC(=O)O | – |
| > 200 µM | O=C(O)Cn1c(SCCOc2ccccc2)nc2ccccc21 | – |
| 50 µM | Cc1ccccc1OCCSc1nc2ccccc2n1CC(=O)O | – |
| 120 µM | O=C(O)Cn1c(SCc2cccc3ccccc23)nc2ccccc21 | – |
| 83 µM | C[C@@H](CN[C@H](c1ccc(F)c(F)c1)P(=O)(O)O)c1ccccc1 | – |
| 110 µM | Cc1cccc(OCCSc2nc3ccccc3n2CC(=O)O)c1C | – |
| 120 µM | O=C(O)CSc1nc2ccccc2n1CCOc1ccccc1 | – |
